Data from PMC5218480 (PLoS ONE, 2017).

System: MV-4-11 cells
Experiment: Gene expression microarray analysis (Affymetrix PrimeView) and GSEA
Format: cell-based, human
Design: RFU PODN (11730768_x_at) / Fold change /veh PODN (11730768_x_at) / RFU LINC00158 (11744669_a_at) / Fold change /veh LINC00158 (11744669_a_at) / RFU DUSP10 (11751237_a_at) / Fold change /veh DUSP10 (11751237_a_at) / RFU ID3 (11757404_x_at) / Fold change /veh ID3 (11757404_x_at) / RFU PLEKHG5 (11737974_s_at) / Fold change /veh PLEKHG5 (11737974_s_at) / RFU LRRC4B (11730491_at) / Fold change /veh LRRC4B (11730491_at) / RFU GIMAP4 (11747438_a_at) / Fold change /veh GIMAP4 (11747438_a_at) / RFU KRT8 (11758183_x_at) / Fold change /veh KRT8 (11758183_x_at) / RFU CNN1 (11734310_a_at) / Fold change /veh CNN1 (11734310_a_at) / RFU VPS37D (11726825_at) / Fold change /veh VPS37D (11726825_at) / RFU C10orf10 (11716522_x_at) / Fold change /veh C10orf10 (11716522_x_at) / RFU KIR2DL2 /// KIR2DL4 /// KIR2DL5A /// KIR2DL5B /// KIR2DS1 /// KIR2DS2 /// KIR2DS3 /// KIR2DS4 /// KIR3DL3 /// KIR3DL3 /// KIR3DS1 (11738374_at) / Fold change /veh KIR2DL2 /// KIR2DL4 /// KIR2DL5A /// KIR2DL5B /// KIR2DS1 /// KIR2DS2 /// KIR2DS3 /// KIR2DS4 /// KIR3DL3 /// KIR3DL3 /// KIR3DS1 (11738374_at) / RFU C1QL1 (11718748_at) / Fold change /veh C1QL1 (11718748_at) / RFU TMPRSS4 (11747572_a_at) / Fold change /veh TMPRSS4 (11747572_a_at) / RFU HAMP (11756126_x_at) / Fold change /veh HAMP (11756126_x_at) / RFU RNFT2 (11725882_a_at) / Fold change /veh RNFT2 (11725882_a_at) / RFU NR4A2 (11747474_a_at) / Fold change /veh NR4A2 (11747474_a_at) / RFU ABCC12 (11746883_a_at) / Fold change /veh ABCC12 (11746883_a_at) / RFU TMEM136 (11760407_x_at) / Fold change /veh TMEM136 (11760407_x_at) / RFU CLDN22 /// WWC2 (11732394_at) / Fold change /veh CLDN22 /// WWC2 (11732394_at) / RFU HLA-DPB1 (11760878_x_at) / Fold change /veh HLA-DPB1 (11760878_x_at) / RFU SPINT1 (11716480_a_at) / Fold change /veh SPINT1 (11716480_a_at) / RFU GAP43 (11754022_s_at) / Fold change /veh GAP43 (11754022_s_at) / RFU A4GNT (11735810_at) / Fold change /veh A4GNT (11735810_at) / RFU PRB3 (11715151_x_at) / Fold change /veh PRB3 (11715151_x_at) / RFU TUBB4B (11761932_at) / Fold change /veh TUBB4B (11761932_at) / RFU CAPN14 (11732068_a_at) / Fold change /veh CAPN14 (11732068_a_at) / RFU TMCC2 (11721928_a_at) / Fold change /veh TMCC2 (11721928_a_at) / RFU IRGQ (11745062_a_at) / Fold change /veh IRGQ (11745062_a_at) / RFU FAM174B (11720279_a_at) / Fold change /veh FAM174B (11720279_a_at) / RFU TMPRSS4 (11748680_a_at) / Fold change /veh TMPRSS4 (11748680_a_at) / RFU FAM212B (11763350_a_at) / Fold change /veh FAM212B (11763350_a_at) / RFU PLEKHG5 (11743358_a_at) / Fold change /veh PLEKHG5 (11743358_a_at) / RFU ZSCAN30 (11745921_a_at) / Fold change /veh ZSCAN30 (11745921_a_at) / RFU CMKLR1 (11741424_a_at) / Fold change /veh CMKLR1 (11741424_a_at) / RFU LOC101060620 /// MAPK8IP1 (11723275_at) / Fold change /veh LOC101060620 /// MAPK8IP1 (11723275_at) / RFU SPTSSB (11747773_x_at) / Fold change /veh SPTSSB (11747773_x_at) / RFU PRSS12 (11739890_at) / Fold change /veh PRSS12 (11739890_at) / RFU BIN1 (11741810_x_at) / Fold change /veh BIN1 (11741810_x_at) / RFU WNT11 (11732464_a_at) / Fold change /veh WNT11 (11732464_a_at) / RFU C10orf10 (11716521_a_at) / Fold change /veh C10orf10 (11716521_a_at) / RFU C5orf56 (11738089_at) / Fold change /veh C5orf56 (11738089_at) / RFU CYB561 (11721691_x_at) / Fold change /veh CYB561 (11721691_x_at) / RFU ANKRD19P (11752326_a_at) / Fold change /veh ANKRD19P (11752326_a_at) / RFU OR2T12 /// OR2T33 /// OR2T8 (11738714_s_at) / Fold change /veh OR2T12 /// OR2T33 /// OR2T8 (11738714_s_at) / RFU VCAN (11748164_a_at) / Fold change /veh VCAN (11748164_a_at) / RFU JSRP1 (11732532_at) / Fold change /veh JSRP1 (11732532_at) / RFU KRTAP10-11 (11738290_x_at) / Fold change /veh KRTAP10-11 (11738290_x_at) / RFU MYO3A (11730013_a_at) / Fold change /veh MYO3A (11730013_a_at) / RFU EBF3 (11725865_a_at) / Fold change /veh EBF3 (11725865_a_at) / RFU CAMK2N1 (11719241_x_at) / Fold change /veh CAMK2N1 (11719241_x_at) / RFU C5orf56 (11738088_a_at) / Fold change /veh C5orf56 (11738088_a_at) / RFU OLFML3 (11715873_a_at) / Fold change /veh OLFML3 (11715873_a_at) / RFU LOC100653217 /// NTM (11731650_a_at) / Fold change /veh LOC100653217 /// NTM (11731650_a_at) / RFU MAPK11 (11762145_a_at) / Fold change /veh MAPK11 (11762145_a_at) / RFU FIZ1 (11724087_x_at) / Fold change /veh FIZ1 (11724087_x_at) / RFU OASL (11726364_x_at) / Fold change /veh OASL (11726364_x_at) / RFU SOX15 (11748057_x_at) / Fold change /veh SOX15 (11748057_x_at) / RFU CD79A (11719716_a_at) / Fold change /veh CD79A (11719716_a_at) / RFU HIST1H1D (11736915_at) / Fold change /veh HIST1H1D (11736915_at) / RFU CASKIN2 (11723855_a_at) / Fold change /veh CASKIN2 (11723855_a_at) / RFU LOC730098 (11760151_x_at) / Fold change /veh LOC730098 (11760151_x_at) / RFU OR4N2 (11742367_at) / Fold change /veh OR4N2 (11742367_at) / RFU PRRT2 (11749266_a_at) / Fold change /veh PRRT2 (11749266_a_at) / RFU SNX32 (11753110_a_at) / Fold change /veh SNX32 (11753110_a_at) / RFU CDHR5 (11726645_a_at) / Fold change /veh CDHR5 (11726645_a_at) / RFU RCAN1 (11760418_a_at) / Fold change /veh RCAN1 (11760418_a_at) / RFU FAM167A (11723789_a_at) / Fold change /veh FAM167A (11723789_a_at) / RFU FAM26E (11764081_at) / Fold change /veh FAM26E (11764081_at) / RFU ISYNA1 (11749810_s_at) / Fold change /veh ISYNA1 (11749810_s_at) / RFU ACY1 (11761880_at) / Fold change /veh ACY1 (11761880_at) / RFU 11764098_at / Fold change /veh 11764098_at / RFU SAMD14 (11745864_x_at) / Fold change /veh SAMD14 (11745864_x_at) / RFU NPB (11741838_a_at) / Fold change /veh NPB (11741838_a_at) / RFU TMPRSS6 (11731388_a_at) / Fold change /veh TMPRSS6 (11731388_a_at) / RFU KRTAP10-2 (11738614_at) / Fold change /veh KRTAP10-2 (11738614_at) / RFU ARHGAP8 /// PRR5-ARHGAP8 (11727945_x_at) / Fold change /veh ARHGAP8 /// PRR5-ARHGAP8 (11727945_x_at) / RFU KRTAP5-7 /// NADSYN1 (11734609_at) / Fold change /veh KRTAP5-7 /// NADSYN1 (11734609_at) / RFU RASL12 (11751679_a_at) / Fold change /veh RASL12 (11751679_a_at) / RFU CDKN2B (11736163_a_at) / Fold change /veh CDKN2B (11736163_a_at) / RFU PRF1 (11729649_at) / Fold change /veh PRF1 (11729649_at) / RFU, ZNF638 /// ZNF638-IT1 / Fold change vs veh, ZNF638 /// ZNF638-IT1 / RFU, PANK3 / Fold change vs veh, PANK3 / RFU, SH3YL1 / Fold change vs veh, SH3YL1 / RFU, ZEB2 / Fold change vs veh, ZEB2 / RFU, NRIP1 / Fold change vs veh, NRIP1 / RFU, PTTG1IP / Fold change vs veh, PTTG1IP / RFU, CAPN2 / Fold change vs veh, CAPN2 / RFU, MED14 / Fold change vs veh, MED14 / RFU, SNORA58 / Fold change vs veh, SNORA58 / RFU, C1orf63 / Fold change vs veh, C1orf63 / RFU, LRRFIP1 / Fold change vs veh, LRRFIP1 / RFU, NDUFAF7 / Fold change vs veh, NDUFAF7 / RFU, SLC12A2 / Fold change vs veh, SLC12A2 / RFU, IBTK / Fold change vs veh, IBTK / RFU, ESF1 / Fold change vs veh, ESF1 / Fold change vs veh, TMEM50B / RFU, TAOK1 / Fold change vs veh, TAOK1 / RFU, ACBD3 / Fold change vs veh, ACBD3 / RFU, TMA16 / Fold change vs veh, TMA16 / RFU, RWDD3 / Fold change vs veh, RWDD3 / RFU, BCAT1 / Fold change vs veh, BCAT1 / RFU, EDEM3 / Fold change vs veh, EDEM3 / RFU, TMEM33 / Fold change vs veh, TMEM33 / RFU, WDR75 / Fold change vs veh, WDR75 / RFU, AHCTF1 / Fold change vs veh, AHCTF1 / RFU, TFRC / Fold change vs veh, TFRC / RFU, ZDHHC17 / Fold change vs veh, ZDHHC17 / RFU, NOM1 / Fold change vs veh, NOM1 / RFU, ARL8B / Fold change vs veh, ARL8B / RFU, ZBTB11 / Fold change vs veh, ZBTB11 / RFU, TAMM41 / Fold change vs veh, TAMM41 / RFU, KIAA1704 /// LOC100996395 / Fold change vs veh, KIAA1704 /// LOC100996395 / RFU, ING1 / Fold change vs veh, ING1 / RFU, TRMT61B / Fold change vs veh, TRMT61B / RFU, FUBP3 / Fold change vs veh, FUBP3 / RFU, TP53 / Fold change vs veh, TP53 / RFU, TNKS2 / Fold change vs veh, TNKS2 / RFU, ZFP14 / Fold change vs veh, ZFP14 / RFU, ACTR2 / Fold change vs veh, ACTR2 / RFU, PPP3R1 / Fold change vs veh, PPP3R1 / RFU, PIK3R1 / Fold change vs veh, PIK3R1 / RFU, HNRNPA1 / Fold change vs veh, HNRNPA1 / RFU, RNF170 / Fold change vs veh, RNF170 / RFU, ZNF28 / Fold change vs veh, ZNF28 / RFU, RNGTT / Fold change vs veh, RNGTT / RFU, OGT / Fold change vs veh, OGT / RFU, BRD1 / Fold change vs veh, BRD1 / RFU, MARS / Fold change vs veh, MARS / RFU, ZNF655 / Fold change vs veh, ZNF655 / RFU, FAHD1 / Fold change vs veh, FAHD1 / RFU, BDP1 / Fold change vs veh, BDP1 / RFU, LRRCC1 / Fold change vs veh, LRRCC1 / RFU, ARID1A / Fold change vs veh, ARID1A / RFU, ZNF146 / Fold change vs veh, ZNF146 / RFU, ZNF330 / Fold change vs veh, ZNF330 / RFU, GPN3 / Fold change vs veh, GPN3 / RFU, C9orf123 / Fold change vs veh, C9orf123 / RFU, N4BP2L2 / Fold change vs veh, N4BP2L2 / RFU, ARFIP1 / Fold change vs veh, ARFIP1 / RFU, FAM179B / Fold change vs veh, FAM179B / RFU, BCL10 / Fold change vs veh, BCL10 / RFU, UHRF1BP1L / Fold change vs veh, UHRF1BP1L / RFU, BET1 / Fold change vs veh, BET1 / RFU, CNOT2 / Fold change vs veh, CNOT2 / RFU, ZNF268 / Fold change vs veh, ZNF268 / Fold change vs veh, ZNF507 / RFU, DGCR2 / Fold change vs veh, DGCR2 / RFU, WDSUB1 / Fold change vs veh, WDSUB1 / Fold change vs veh, HSP90B1 /// MIR3652 / RFU, ADSS / Fold change vs veh, ADSS / RFU, GK / Fold change vs veh, GK / RFU, ZNF148 / Fold change vs veh, ZNF148 / RFU, TAF9 / Fold change vs veh, TAF9 / RFU, SLC1A5 / Fold change vs veh, SLC1A5 / RFU, SLMO2 / Fold change vs veh, SLMO2 / RFU, ABCC4 / Fold change vs veh, ABCC4 / RFU, LOC101060439 /// RAP1B / Fold change vs veh, LOC101060439 /// RAP1B / RFU, RFX7 / Fold change vs veh, RFX7 / RFU, GTPBP10 / Fold change vs veh, GTPBP10 / RFU, CNEP1R1 / Fold change vs veh, CNEP1R1 / RFU, BIVM-ERCC5 /// ERCC5 / Fold change vs veh, BIVM-ERCC5 /// ERCC5 / RFU, ILF3 / Fold change vs veh, ILF3 / RFU 11762660_at / Fold change /veh 11762660_at / RFU VCAN (11757783_s_at) / Fold change /veh VCAN (11757783_s_at) / RFU DDX43 (11728927_at) / Fold change /veh DDX43 (11728927_at) / RFU KRT8 (11758188_x_at) / Fold change /veh KRT8 (11758188_x_at) / RFU NKD1 (11759106_at) / Fold change /veh NKD1 (11759106_at) / RFU SRD5A1 (11742802_a_at) / Fold change /veh SRD5A1 (11742802_a_at) / RFU TPSAB1 /// TPSB2 (11721975_s_at) / Fold change /veh TPSAB1 /// TPSB2 (11721975_s_at) / RFU GSTM3 (11746129_a_at) / Fold change /veh GSTM3 (11746129_a_at) / RFU IL23R (11737362_x_at) / Fold change /veh IL23R (11737362_x_at) / RFU TMEM51 (11727254_a_at) / Fold change /veh TMEM51 (11727254_a_at) / RFU PIWIL2 (11732686_x_at) / Fold change /veh PIWIL2 (11732686_x_at) / RFU ORM1 (11744905_x_at) / Fold change /veh ORM1 (11744905_x_at) / RFU CCDC152 (11743942_at) / Fold change /veh CCDC152 (11743942_at) / RFU ECM1 (11717891_a_at) / Fold change /veh ECM1 (11717891_a_at) / RFU IL23R (11748794_a_at) / Fold change /veh IL23R (11748794_a_at) / RFU TNFAIP8L3 (11732012_x_at) / Fold change /veh TNFAIP8L3 (11732012_x_at) / RFU MBOAT4 (11741988_at) / Fold change /veh MBOAT4 (11741988_at) / RFU 11764193_at / Fold change /veh 11764193_at / RFU TMEM53 (11763286_at) / Fold change /veh TMEM53 (11763286_at) / RFU MAGEB2 (11727129_at) / Fold change /veh MAGEB2 (11727129_at) / RFU TMEM200A (11744735_a_at) / Fold change /veh TMEM200A (11744735_a_at) / RFU CCDC152 (11751479_a_at) / Fold change /veh CCDC152 (11751479_a_at) / RFU FAM211A (11726209_a_at) / Fold change /veh FAM211A (11726209_a_at) / RFU RGS16 (11746705_a_at) / Fold change /veh RGS16 (11746705_a_at) / RFU VCAN (11755009_s_at) / Fold change /veh VCAN (11755009_s_at) / RFU RHOB (11743442_s_at) / Fold change /veh RHOB (11743442_s_at) / RFU RGS16 (11720943_a_at) / Fold change /veh RGS16 (11720943_a_at) / RFU RGS16 (11720944_at) / Fold change /veh RGS16 (11720944_at) / RFU, VPS4B / Fold change vs veh, VPS4B / RFU, CREB1 / Fold change vs veh, CREB1 / RFU, DNAJC13 / Fold change vs veh, DNAJC13 / RFU, GNAQ / Fold change vs veh, GNAQ / RFU, CDK5R1 / Fold change vs veh, CDK5R1 / RFU, ZRANB3 / Fold change vs veh, ZRANB3 / RFU, CUL4A / Fold change vs veh, CUL4A / RFU, CCNY / Fold change vs veh, CCNY / RFU, UFL1 / Fold change vs veh, UFL1 / RFU, COG3 / Fold change vs veh, COG3 / RFU, DIAPH2 / Fold change vs veh, DIAPH2 / RFU, SKA2 / Fold change vs veh, SKA2 / RFU, AFF3 / Fold change vs veh, AFF3 / RFU, LMF1 / Fold change vs veh, LMF1 / RFU, IPO11 / Fold change vs veh, IPO11 / RFU, DFFB / Fold change vs veh, DFFB / RFU, FOXP1 / Fold change vs veh, FOXP1 / RFU, CARD8 / Fold change vs veh, CARD8 / RFU, STRN3 / Fold change vs veh, STRN3 / RFU, ADK / Fold change vs veh, ADK / RFU, RASSF2 / Fold change vs veh, RASSF2 / RFU, WIPF1 / Fold change vs veh, WIPF1 / RFU, LARP1B / Fold change vs veh, LARP1B / RFU, RASA1 / Fold change vs veh, RASA1 / RFU, RB1 / Fold change vs veh, RB1 / RFU, PPFIA1 / Fold change vs veh, PPFIA1 / RFU, MAT2A / Fold change vs veh, MAT2A / RFU, CCT5 / Fold change vs veh, CCT5 / RFU, WDR92 / Fold change vs veh, WDR92 / RFU, CUX1 / Fold change vs veh, CUX1 / RFU, TTC7A / Fold change vs veh, TTC7A / RFU, TMEM135 / Fold change vs veh, TMEM135 / RFU, DEPTOR / Fold change vs veh, DEPTOR / RFU, CPM / Fold change vs veh, CPM / RFU, DNAJB6 / Fold change vs veh, DNAJB6 / RFU, CACNA2D3 / Fold change vs veh, CACNA2D3 / RFU, DTX4 / Fold change vs veh, DTX4 / RFU, TFCP2 / Fold change vs veh, TFCP2 / RFU, GMCL1 /// GMCL1P1 / Fold change vs veh, GMCL1 /// GMCL1P1 / RFU, AEBP2 / Fold change vs veh, AEBP2 / RFU, SNHG1 /// SNORD22 /// SNORD25 /// SNORD26 /// SNORD27 /// SNORD28 /// SNORD29 /// SNORD31 / Fold change vs veh, SNHG1 /// SNORD22 /// SNORD25 /// SNORD26 /// SNORD27 /// SNORD28 /// SNORD29 /// SNORD31 / Fold change (Aza/veh), C12orf56 (ProbeSet 11735607_a_at) / Fold change (ACY-1035/veh), C12orf56 (ProbeSet 11735607_a_at) / Fold change (Aza/veh), FGFR1OP (ProbeSet 11751329_s_at) / Fold change (ACY-1035/veh), FGFR1OP (ProbeSet 11751329_s_at) / Fold change (Aza/veh), VPS36 (ProbeSet 11739960_a_at) / Fold change (ACY-1035/veh), VPS36 (ProbeSet 11739960_a_at) / RFU SYPL1 (11715823_x_at) / Fold change /veh SYPL1 (11715823_x_at) / RFU IGFBP7 (11715501_s_at) / Fold change /veh IGFBP7 (11715501_s_at) / RFU REEP3 (11722064_at) / Fold change /veh REEP3 (11722064_at) / RFU IGLL1 (11728026_x_at) / Fold change /veh IGLL1 (11728026_x_at): dose or concentration left out as unconfirmed
Conditions: MV-4-11 cells, 48 hours

Nc1ncn([C@@H]2O[C@H](CO)[C@@H](O)[C@H]2O)c(=O)n1 [azacitidine]
RFU IL23R (11748794_a_at): 8.76 RFU
